From BindingDB's records for doi:10.1021/jm00100a005 (Eli Lilly, 1992)

Target: Muscarinic acetylcholine receptor M1 (Oryctolagus cuniculus)
Test: Efficacy at muscarinic acetylcholine receptor M1 measured by the ability to inhibit the electrically stimulated twitch of the rabbit vas deferens

`CCCCCCSc1nsnc1C1=CCCN(C)C1` [5-(4-Hexylsulfanyl-[1,2,5]thiadiazol-3-yl)-1-methyl-1,2,3,6-tetrahydro-pyridine; oxalic acid] gave an IC50 of 1 pM.
